Among the data in the supplement of paper PMC10307832 are relative viability values, retold here.

Common to all, as to assay: relative viability (nuclei count vs DMSO), 5 days (fraction); higher = more cells survive
Compound in the experiment “Linsitinib + Alpelisib”: C[C@]1(O)C[C@@H](c2nc(-c3ccc4ccc(-c5ccccc5)nc4c3)c3c(N)nccn32)C1 [Linsitinib] + Cc1nc(NC(=O)N2CCC[C@H]2C(N)=O)sc1-c1ccnc(C(C)(C)C(F)(F)F)c1 [Alpelisib] (partner 2 µM)
A digest of the protocol:
(§1)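 Relative viability was taken as the ratio of nuclei in treated wells to nuclei in vehicle wells. Lung cancer cell lines in 1536-well plates received compounds by pin tool one day after seeding, either one drug alone or a fixed anchor-drug dose plus five library-drug doses (not always all listed) in √10 steps. Nuclei were counted on 4× images after 5 days of treatment, and values are medians of duplicate plates.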

Compound in the experiment “Linsitinib + Decitabine”: C[C@]1(O)C[C@@H](c2nc(-c3ccc4ccc(-c5ccccc5)nc4c3)c3c(N)nccn32)C1 [Linsitinib] + Nc1ncn([C@H]2C[C@H](O)[C@@H](CO)O2)c(=O)n1 [Decitabine] (partner 2 µM)
An outline of the steps: as §1

Compound in the experiment “Linsitinib + Pemetrexed”: C[C@]1(O)C[C@@H](c2nc(-c3ccc4ccc(-c5ccccc5)nc4c3)c3c(N)nccn32)C1 [Linsitinib] + Nc1nc2[nH]cc(CCc3ccc(C(=O)N[C@@H](CCC(=O)O)C(=O)O)cc3)c2c(=O)[nH]1 [Pemetrexed] (partner 0.2 µM)
A digest of the protocol: as §1

Compound in the experiment “Linsitinib + Vorinostat”: C[C@]1(O)C[C@@H](c2nc(-c3ccc4ccc(-c5ccccc5)nc4c3)c3c(N)nccn32)C1 [Linsitinib] + O=C(CCCCCCC(=O)Nc1ccccc1)NO [Vorinostat] (partner 1 µM)
An outline of the steps: as §1

Take UMC-11: the relative viability is 0.958 in the experiment with Linsitinib + Alpelisib (first compound 0.01 µM); 0.951 with Linsitinib + Alpelisib (first compound 0.03162 µM); 0.961 with Linsitinib + Alpelisib (first compound 0.1 µM); 0.969 with Linsitinib + Alpelisib (first compound 1 µM); 0.627 with Linsitinib + Decitabine (first compound 0.01 µM); 0.458 with Linsitinib + Decitabine (first compound 0.03162 µM). In addition, the relative viability with Linsitinib + Decitabine (first compound 0.1 µM) was 0.642; with Linsitinib + Decitabine (first compound 0.3162 µM), 0.423; in the experiment with Linsitinib + Decitabine (first compound 1 µM), 0.527; with Linsitinib + Pemetrexed (first compound 0.01 µM) it was 0.7; with Linsitinib + Pemetrexed (first compound 0.03162 µM), 0.771; with Linsitinib + Pemetrexed (first compound 0.1 µM), 0.817. The relative viability was found to be 0.597 with Linsitinib + Pemetrexed (first compound 0.3162 µM); 0.776 with Linsitinib + Pemetrexed (first compound 1 µM); 0.369 with Linsitinib + Vorinostat (first compound 0.01 µM); 0.389 with Linsitinib + Vorinostat (first compound 0.03162 µM); 0.357 in the experiment with Linsitinib + Vorinostat (first compound 0.1 µM); 0.217 in the experiment with Linsitinib + Vorinostat (first compound 0.3162 µM). Further, the relative viability in the experiment with Linsitinib + Vorinostat (first compound 1 µM) came to 0.386.
